In ChEMBL document CHEMBL1201862, “PubChem BioAssay data set” (2004):
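Following 48 hours of exposure in 96-well plates, responses at five concentrations were used to interpolate endpoints linearly. At the GI50, growth is halved.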 Calls of active or inactive are those of the source. Cut-off read from the data, not from the text of the source: active = GI50 up to about 1.1 µM and inactive = higher.

Key:
Assay in all cases: growth of human tumour cells (NCI), 48 h
DU-145 = system: DU-145
Hs-578T = system: Hs-578T
SR = system: SR
HOP-92 = system: HOP-92
UACC-257 = system: UACC-257
ACHN = system: ACHN
OVCAR-5 = system: OVCAR-5
SK-OV-3 = system: SK-OV-3
UO-31 = system: UO-31
MOLT-4 = system: MOLT-4
HCT-15 = system: HCT-15
SF-295 = system: SF-295
SNB-19 = system: SNB-19
SK-MEL-2 = system: SK-MEL-2
U-251 = system: U-251
HL-60 = system: HL-60
TK-10 = system: TK-10
NCI-H23 = system: NCI-H23
KM12 = system: KM12
PC-3 = system: PC-3
COLO 205 = system: COLO 205
RXF 393 = system: RXF 393
SF-268 = system: SF-268
SF-539 = system: SF-539
OVCAR-3 = system: OVCAR-3
OVCAR-8 = system: OVCAR-8
CAKI-1 = system: CAKI-1
M14 = system: M14
SK-MEL-28 = system: SK-MEL-28
UACC-62 = system: UACC-62
MDA-N = system: MDA-N
CCRF-CEM = system: CCRF-CEM
MCF7 = system: MCF7
SW-620 = system: SW-620
Malme-3M = system: Malme-3M
NCI-H522 = system: NCI-H522
HCC 2998 = system: HCC 2998
A549 = system: A549
MDA-MB-231 = system: MDA-MB-231
MDA-MB-435 = system: MDA-MB-435
HCT-116 = system: HCT-116
HOP-62 = system: HOP-62
OVCAR-4 = system: OVCAR-4
LOX IMVI = system: LOX IMVI
SN12C = system: SN12C
RPMI-8226 = system: RPMI-8226
BT-549 = system: BT-549
NCI/ADR-RES = system: NCI/ADR-RES
786-0 = system: 786-0
T47D = system: T47D
NCI-H460 = system: NCI-H460
IGROV-1 = system: IGROV-1
K562 = system: K562
EKVX = system: EKVX
HT-29 = system: HT-29
SK-MEL-5 = system: SK-MEL-5
SNB-75 = system: SNB-75
NCI-H226 = system: NCI-H226

Measured: GI50

O=c1[nH]c2nc3ccccc3c(=O)n2/c1=C/c1ccc(Cl)cc1
27.2 µM: HCT-15
inactive: DU-145 33.3 µM | Hs-578T 20.8 µM | SR > 100 µM | HOP-92 27.4 µM | UACC-257 30.7 µM | ACHN 65.3 µM | OVCAR-5 63.5 µM | SK-OV-3 > 100 µM | UO-31 67.6 µM | MOLT-4 51.6 µM | SF-295 54.6 µM | SNB-19 23.4 µM | SK-MEL-2 > 100 µM | U-251 28.2 µM | HL-60 48.8 µM | TK-10 58.5 µM | NCI-H23 25.8 µM | KM12 18.4 µM | PC-3 > 100 µM | COLO 205 38.5 µM | RXF 393 46.5 µM | SF-268 26.9 µM | SF-539 21.7 µM | OVCAR-3 24.3 µM | OVCAR-8 16.1 µM | CAKI-1 > 100 µM | M14 36.9 µM | SK-MEL-28 23.5 µM | UACC-62 33.3 µM | MDA-N 22.2 µM | CCRF-CEM 37 µM | MCF7 50.1 µM | SW-620 17.9 µM | Malme-3M 28.9 µM | NCI-H522 12.6 µM | HCC 2998 21.7 µM | A549 > 100 µM | MDA-MB-231 58.1 µM | MDA-MB-435 21.7 µM | HCT-116 36 µM | HOP-62 53.7 µM | OVCAR-4 > 100 µM | LOX IMVI 30.4 µM | SN12C 26.8 µM | RPMI-8226 82.8 µM | BT-549 16.9 µM | NCI/ADR-RES 26.2 µM | 786-0 24.2 µM | T47D 36.2 µM

CNC1C(O)C(NC)C2OC3(O)C(=O)CC(C)OC3OC2C1O (configuration not stated)
> 100 µM: HCT-15
inactive: DU-145 > 100 µM | Hs-578T > 100 µM | SR > 100 µM | HOP-92 > 100 µM | UACC-257 > 100 µM | ACHN > 100 µM | NCI-H460 > 100 µM | OVCAR-5 > 100 µM | IGROV-1 > 100 µM | SK-OV-3 > 100 µM | UO-31 > 100 µM | MOLT-4 > 100 µM | SF-295 > 100 µM | SNB-19 > 100 µM | SK-MEL-2 > 100 µM | U-251 > 100 µM | HL-60 > 100 µM | TK-10 > 100 µM | NCI-H23 > 100 µM | KM12 > 100 µM | K562 > 100 µM | PC-3 > 100 µM | EKVX > 100 µM | COLO 205 > 100 µM | RXF 393 > 100 µM | SF-268 > 100 µM | SF-539 > 100 µM | OVCAR-3 > 100 µM | HT-29 > 100 µM | OVCAR-8 > 100 µM | CAKI-1 > 100 µM | SK-MEL-5 > 100 µM | M14 > 100 µM | SK-MEL-28 > 100 µM | UACC-62 > 100 µM | MDA-N > 100 µM | CCRF-CEM > 100 µM | MCF7 > 100 µM | SW-620 > 100 µM | SNB-75 > 100 µM | NCI-H522 > 100 µM | HCC 2998 > 100 µM | A549 > 100 µM | MDA-MB-231 > 100 µM | MDA-MB-435 > 100 µM | HCT-116 > 100 µM | NCI-H226 > 100 µM | HOP-62 > 100 µM | OVCAR-4 > 100 µM | LOX IMVI > 100 µM | SN12C > 100 µM | RPMI-8226 > 100 µM | BT-549 > 100 µM | NCI/ADR-RES > 100 µM | 786-0 > 100 µM | T47D > 100 µM
